Source: patent US20260042746A1, “2(1H)-PYRIDINIMINE DERATIVE” (SUMITOMO PHARMA CO., LTD., priority 2022, published 2026)

Tests used:
Assay type in all cases: cell-based
α-synuclein aggregate [1] = assay: Test 2: suppressing the accumulation of α-synuclein aggregate in neurospheroid from PLA2G6 mutant human iPS cells; conditions: compound added day 4, measured day 9, DMSO = 100%
Experimental: Test 2: Evaluation of Suppressing the Accumulation of α-Synuclein Aggregate with Neurospheroid Prepared from Human iPS Cells with a Mutation in PLA2G6 Gene
(§1) (1) Induction of Differentiation from Human iPS Cell to Neural Cell
Neural stem cells were induced from PLA2G6 gene mutant iPS cells with PSC Neuronal Induction Medium (Thermo Fisher Scientific Inc., cat #A1647801). Neurospheroid was prepared from the induced neural stem cells by three-dimensional culture system, and preserved with BrainPhys Neuronal Medium (STEMCELL Technologies, cat #ST-05793) comprising NeuroCult SM1 Neuronal Supplement, N2 Supplement-A, 20 ng/mL BDNF, 20 ng/mL GDNF, 1 mM dibutyryl cAMP, and 200 nM ascorbic acid. Half of the culture medium was replaced on day 2 and day 4 after the induction of differentiation.
The test compound was diluted with the culture medium so as to be twice the final concentration, and an equal volume of the twice-concentrated solution was added to each well when half of the culture medium was replaced on day 4 after induction of differentiation.
(§2) (2) Evaluation of the Amount of α-Synuclein Aggregate
From the neurospheroid 9 days after the induction of differentiation, proteins were extracted with a TBS solution containing 1% TritionX-100, and the extracted proteins were subjected to a protein analysis with Simple Western system (Protein Simple, Inc., cat #SM-W008) using an α-synuclein antibody (Thermo Fisher Scientific Inc., cat #AHB0261) to measure the amount of the α-synuclein aggregate.
Assuming that the amount of the aggregate in the neurospheroid added with a DMSO solution is 100%, the amount of the aggregate in the neurospheroid added with each test compound was evaluated.

α-synuclein aggregate [2] = assay: Test 3: reducing the accumulation of α-synuclein aggregate in neurospheroid from PLA2G6 mutant human iPS cells; conditions: compound added day 10, measured day 15, DMSO = 100%
Experimental: Test 3: Evaluation of Reducing the Accumulation of α-Synuclein Aggregate with Neurospheroid Prepared from Human iPS Cells with a Mutation in PLA2G6 Gene
as §1
(§3) Neural stem cells were induced from PLA2G6 gene mutant iPS cells with PSC Neuronal Induction Medium (Thermo Fisher Scientific Inc., cat #A1647801). Neurospheroid was prepared from the induced neural stem cells by three-dimensional culture system, and preserved with BrainPhys Neuronal Medium (STEMCELL Technologies, cat #ST-05793) comprising NeuroCult SM1 Neuronal Supplement, N2 Supplement-A, 20 ng/mL BDNF, 20 ng/mL GDNF, 1 mM dibutyryl cAMP, and 200 nM ascorbic acid. Half of the culture medium was replaced every 3 or 4 days after the induction of differentiation.
The test compound was diluted with the culture medium so as to be twice the final concentration, and an equal volume of the twice-concentrated solution was added to each well when half of the culture medium was replaced on day 10 after induction of differentiation.
as §2
From the neurospheroid 15 days after the induction of differentiation, proteins were extracted with a TBS solution containing 1% TritionX-100, and the extracted proteins were subjected to a protein analysis with Simple Western system (Protein Simple, Inc., cat #SM-W008) using an α-synuclein antibody (Thermo Fisher Scientific Inc., cat #AHB0261) to measure the amount of the α-synuclein aggregate.
(§4) The amount of the aggregate in the neurospheroid added with each test compound was measured. Assuming that the amount of the aggregate in the neurospheroid added with a DMSO solution is 100%, the amount of the aggregate in the test samples was evaluated.

α-synuclein aggregate [3] = assay: Test 5: suppressing the accumulation of α-synuclein aggregate in dopamine neurospheroid from PLA2G6 mutant human iPS cells; conditions: compound added day 21, measured day 26, DMSO = 100%
Experimental: Test 5: Evaluation of Suppressing the Accumulation of α-Synuclein Aggregate with Dopamine Neurospheroid Prepared From Human iPS Cells with a Mutation in PLA2G6 Gene
as §1
as §3, with “Dopaminergic progenitor” for “Neural stem”, “dopaminergic neuron differentiation kit” for “PSC Neuronal Induction Medium”, “#A3147701). Dopamine neurospheroid” for “#A1647801). Neurospheroid”, “dopaminergic progenitor” for “neural stem”
The test compound was diluted with the culture medium so as to be twice the final concentration, and an equal volume of the twice-concentrated solution was added to each well when half of the culture medium was replaced on day 21 after induction of differentiation.
as §2
From the dopamine neurospheroid 26 days after the induction of differentiation, proteins were extracted with a TBS solution containing 1% TritionX-100, and the extracted proteins were subjected to a protein analysis with Simple Western system (Protein Simple, Inc., cat #SM-W008) using an α-synuclein antibody (Thermo Fisher Scientific Inc., cat #AHB0261) to measure the amount of the α-synuclein aggregate.
as §4

α-synuclein aggregate [4] = assay: Test 11: reducing the accumulation of α-synuclein aggregate in dopamine neurospheroid from GBA1 mutant human iPS cells; conditions: compound added day 40, measured day 44, DMSO = 100%
Experimental: Test 11: Evaluation of Reducing the Accumulation of α-Synuclein Aggregate with Dopamine Neurospheroid Prepared From Human iPS Cells with a Mutation in GBA1 Gene
as §1
Dopaminergic progenitor cells were induced from GBA1 gene mutant iPS cells with dopaminergic neuron differentiation kit (Thermo Fisher Scientific Inc., cat #A3147701). Dopamine neurospheroid was prepared from the induced dopaminergic progenitor cells by three-dimensional culture system, and preserved with BrainPhys Neuronal Medium (STEMCELL Technologies, cat #ST-05793) comprising NeuroCult SM1 Neuronal Supplement, N2 Supplement-A, 20 ng/mL BDNF, 20 ng/mL GDNF, 1 mM dibutyryl cAMP, and 200 nM ascorbic acid. Half of the culture medium was replaced every 3 or 4 days.
The test compound was diluted with the culture medium so as to be twice the final concentration, and an equal volume of the twice-concentrated solution was added to each well when half of the culture medium was replaced on day 40 after induction of differentiation.
as §2
From the dopamine neurospheroid 44 days after the induction of differentiation, proteins were extracted with a TBS solution containing 1% TritionX-100, and the extracted proteins were subjected to a protein analysis with Simple Western system (Protein Simple, Inc., cat #SM-W008) using an α-synuclein antibody (Thermo Fisher Scientific Inc., cat #AHB0261) to measure the amount of the α-synuclein aggregate.
as §4

SMILES: COc1ccn(C)/c(=N/C(=O)C2(C)CN(C)C2)c1 [Example 51, N-[(2E)-4-methoxy-1-methylpyridin-2(1H)-ylidene]-1,3-dimethylazetidine-3-carboxamide]
- activity at 0.1 µM (α-synuclein aggregate [1]; 100 nM, read-out: Amount of aggregate (%) 100 nM): 4%
- activity at 1 µM (α-synuclein aggregate [1]; 1000 nM, read-out: Amount of aggregate (%) 1000 nM): 9%
- Amount of aggregate (%) 100 nM (α-synuclein aggregate [2]; 100 nM): 12%
- Amount of aggregate (%) 1000 nM (α-synuclein aggregate [2]; 1000 nM): 10%
- Amount of aggregate (%) 100 nM (α-synuclein aggregate [3]; 100 nM): 27%
- Amount of aggregate (%) 1000 nM (α-synuclein aggregate [3]; 1000 nM): 31%
- Amount of aggregate (%) 100 nM (α-synuclein aggregate [4]; 100 nM): 16%
- Amount of aggregate (%) 1000 nM (α-synuclein aggregate [4]; 1000 nM): 30%
